Test results: the NIST ThermoML archive (doi:10.1016/j.tca.2011.05.006)

Key:
[1] = xn = mol fraction of the nth substance listed; conditions: 101 kPa, Liquid, Vibrating tube method
[2] = 101 kPa, Liquid, Vibrating tube method

CCCCCO [pentan-1-ol] + CC(C)NC(C)C
[1], x2 = 0
Conditions | mass density [kg/m3]
293.15 K | 814.8
298.15 K | 810.82
303.15 K | 807.07
313.15 K | 799.4

CCO [ethanol] + CC(C)NC(C)C
[1], x2 = 0
Conditions | mass density [kg/m3]
293.15 K | 792.17
298.15 K | 786.71
303.15 K | 781.3
313.15 K | 771.14

CO [methanol] + CC(C)NC(C)C
[1], x2 = 0
Conditions | mass density [kg/m3]
293.15 K | 791.72
298.15 K | 787.35
303.15 K | 782.24
313.15 K | 772.73

CC(C)NC(C)C [diisopropylamine] + CCO
mass density [kg/m3], [1]
Conditions | 293.15 K | 298.15 K | 303.15 K | 313.15 K
x1 = 0.0808 | 788.65 | 783.48 | 777.89 | 767.17
x1 = 0.1601 | 784.61 | 779.32 | 773.64 | 762.87
x1 = 0.2386 | 779.98 | 774.56 | 768.86 | 758.28
x1 = 0.3497 | 772.63 | 767.12 | 761.5 | 751.13
x1 = 0.4411 | 766.01 | 760.55 | 755.15 | 744.76
x1 = 0.5532 | 757.4 | 752.37 | 747.04 | 736.47
x1 = 0.65 | 749.49 | 744.83 | 739.74 | 728.89
x1 = 0.7395 | 742.16 | 737.7 | 732.71 | 721.68
x1 = 0.8478 | 733.27 | 728.73 | 723.74 | 712.63
x1 = 0.9385 | 725.8 | 720.86 | 715.91 | 704.95
x1 = 1 | 720.89 | 715.35 | 710.23 | 699.71

CCCCO [butan-1-ol]
[2]
Conditions | mass density [kg/m3]
293.15 K | 809.78
298.15 K | 806.05
303.15 K | 802.03
313.15 K | 794.12

CC(C)NC(C)C [diisopropylamine] + CO
mass density [kg/m3], [1]
Conditions | 293.15 K | 298.15 K | 303.15 K | 313.15 K
x1 = 0.0808 | 789.98 | 785.35 | 779.68 | 768.72
x1 = 0.1599 | 786.75 | 781.66 | 776.01 | 764.23
x1 = 0.2399 | 782.33 | 777.02 | 771.2 | 758.93
x1 = 0.3477 | 774.9 | 769.38 | 763.6 | 751.16
x1 = 0.4444 | 767.44 | 761.76 | 756.06 | 744.11
x1 = 0.5563 | 757.92 | 752.29 | 746.8 | 735.46
x1 = 0.6507 | 749.84 | 744.22 | 738.78 | 727.96
x1 = 0.7388 | 742.2 | 736.62 | 731.3 | 720.89
x1 = 0.8482 | 732.94 | 727.37 | 722.19 | 712.05
x1 = 0.94 | 725.56 | 719.98 | 714.87 | 704.62
x1 = 1 | 720.89 | 715.35 | 710.23 | 699.71

CCO [ethanol]
[2]
Conditions | mass density [kg/m3]
293.15 K | 792.17
298.15 K | 786.71
303.15 K | 781.3
313.15 K | 771.14

CC(C)NC(C)C [diisopropylamine]
[2]
Conditions | mass density [kg/m3]
293.15 K | 720.89
298.15 K | 715.35
303.15 K | 710.23
313.15 K | 699.71

CCCCO [butan-1-ol] + CC(C)NC(C)C
[1], x2 = 0
Conditions | mass density [kg/m3]
293.15 K | 809.78
298.15 K | 806.05
303.15 K | 802.03
313.15 K | 794.12

CO [methanol]
[2]
Conditions | mass density [kg/m3]
293.15 K | 791.72
298.15 K | 787.35
303.15 K | 782.24
313.15 K | 772.73

CC(C)NC(C)C [diisopropylamine] + CCCCCO
mass density [kg/m3], [1]
Conditions | 293.15 K | 298.15 K | 303.15 K | 313.15 K
x1 = 0.0815 | 809.89 | 805.62 | 801.64 | 794.78
x1 = 0.16 | 804.18 | 799.78 | 795.61 | 788.52
x1 = 0.2392 | 797.77 | 793.23 | 788.98 | 780.98
x1 = 0.35 | 787.88 | 783.17 | 778.74 | 769.75
x1 = 0.4401 | 779.23 | 774.43 | 769.93 | 760.48
x1 = 0.5597 | 767.21 | 762.29 | 757.69 | 748.46
x1 = 0.6498 | 757.9 | 752.85 | 748.14 | 739.55
x1 = 0.7356 | 748.9 | 743.79 | 738.95 | 730.94
x1 = 0.8497 | 736.82 | 731.52 | 726.57 | 718.73
x1 = 0.9379 | 727.48 | 722.03 | 716.97 | 708.08
x1 = 1 | 720.89 | 715.35 | 710.23 | 699.71

CC(C)NC(C)C [diisopropylamine] + CCCCO
mass density [kg/m3], [1]
Conditions | 293.15 K | 298.15 K | 303.15 K | 313.15 K
x1 = 0.0815 | 804.64 | 800.71 | 796.89 | 789.72
x1 = 0.1611 | 798.64 | 794.65 | 790.84 | 783.86
x1 = 0.2404 | 792.1 | 788 | 784.11 | 777.07
x1 = 0.3496 | 782.52 | 778.41 | 774.3 | 767.06
x1 = 0.44 | 774.49 | 770.21 | 766.09 | 758.54
x1 = 0.56 | 763.71 | 759.1 | 754.95 | 747.2
x1 = 0.6499 | 755.59 | 750.61 | 746.56 | 738.57
x1 = 0.74 | 747.35 | 741.97 | 737.86 | 729.62
x1 = 0.8484 | 736.91 | 731.98 | 727 | 718.21
x1 = 0.9384 | 727.64 | 721.96 | 717.35 | 707.61
x1 = 1 | 720.89 | 715.35 | 710.23 | 699.71

CCCO [propan-1-ol]
[2]
Conditions | mass density [kg/m3]
293.15 K | 800.03
298.15 K | 797.81
303.15 K | 795.05
313.15 K | 787.95

CCCCCO [pentan-1-ol]
[2]
Conditions | mass density [kg/m3]
293.15 K | 814.8
298.15 K | 810.82
303.15 K | 807.07
313.15 K | 799.4

CC(C)NC(C)C [diisopropylamine] + CCCO
mass density [kg/m3], [1]
Conditions | 293.15 K | 298.15 K | 303.15 K | 313.15 K
x1 = 0.0813 | 796.38 | 793.94 | 791.19 | 784.48
x1 = 0.1608 | 791.55 | 788.58 | 785.66 | 779.04
x1 = 0.2398 | 785.63 | 782.57 | 779.21 | 772.45
x1 = 0.3497 | 777.13 | 773.41 | 769.55 | 762.48
x1 = 0.4398 | 769.26 | 765.67 | 761.55 | 754.19
x1 = 0.5546 | 760.03 | 755.85 | 751.48 | 743.87
x1 = 0.6487 | 752.32 | 747.75 | 743.28 | 735.48
x1 = 0.7383 | 744.72 | 740.05 | 735.49 | 727.35
x1 = 0.8491 | 735.16 | 730.09 | 725.47 | 716.62
x1 = 0.9395 | 726.79 | 721.53 | 716.61 | 706.82
x1 = 1 | 720.89 | 715.35 | 710.23 | 699.71

CCCO [propan-1-ol] + CC(C)NC(C)C
[1], x2 = 0
Conditions | mass density [kg/m3]
293.15 K | 800.03
298.15 K | 797.81
303.15 K | 795.05
313.15 K | 787.95
